Values of other authors in patent publication US20250114361A1, “PYRAZOLOPYRIMIDINE COMPOUND AND PHARMACEUTICAL USE THEREOF” (Japan Tobacco Inc., priority 2022, published 2025).

Legend:
[1] = system: mouse strain expressing CAPS-related NLRP3 mutations; details: in vivo; cited from earlier work
MOG35-55EAE model mice = details: administration after the onset; cited from earlier work
[2] = system: intracerebral bleeding model rats; details: cited from earlier work
[3] = system: mice infected with SARS-CoV-2; details: mouse, in vivo; cited from earlier work
[4] = system: maternal immune activation (MIA) model; details: administration to the mother; cited from earlier work
microglia = details: cited from earlier work
[5] = system: mice with spinal cord injury; details: mouse, in vivo; cited from earlier work
[6] = system: middle cerebral artery occlusion (MCAO) mice; details: MCAO model; cited from earlier work
[7] = system: STZ-induced diabetic mice; details: mouse, in vivo; cited from earlier work
TBI model mice = details: mouse, in vivo; cited from earlier work
[8] = system: intestinal perforation model; details: in vivo; cited from earlier work
[9] = system: pathological models of depressive illness; details: in vivo; cited from earlier work
[10] = system: mouse model of deoxycorticosterone acetate-salt; details: in vivo; cited from earlier work
[11] = system: pilocarpine-induced epilepsy model mice; details: mouse, in vivo; cited from earlier work
R6/2 mice = details: mouse, in vivo; cited from earlier work
[12] = system: α-synuclein PFF injected mice; details: mouse, in vivo; cited from earlier work
APP/PS1 mice = details: mouse, in vivo; cited from earlier work
[13] = system: intra-articular urate-injected arthritis model; details: in vivo; cited from earlier work

O=C(O)c1ccc(/C=C2/SC(=S)N(Cc3cccc(C(F)(F)F)c3)C2=O)cc1 [CY-09]
systemic lethal inflammation and survival [1]: suppressed systemic lethal inflammation and improved the survival

COc1ccc(Cl)cc1C(=O)NCCc1ccc(S(=O)(=O)NO)cc1 [JC-171]
impairment of motor function (MOG35-55EAE model mice): inhibited the impairment of motor function

CC(C)(O)c1coc(S(=O)(=O)NC(=O)Nc2c3c(cc4c2CCC4)CCC3)c1 [MCC950]
neuroprotective effects [2]: showed neuroprotective effects
NLRP3 inflammasome activation in the lung and dysregulated immune response [3]: inhibits NLRP3 inflammasome activation in the lung and suppresses the dysregulated immune response
ASD symptoms in offspring [4]: suppresses ASD symptoms in offspring
NLRP3 activation in microglia and IL-1β production (microglia): inhibits SOD1G93A and TDP-43 protein-induced NLRP3 activation in microglia and decreases IL-1β production
NLRP3 activation and IL-1β expression in the spinal cord, recovery of motor function [5]: NLRP3 activation and IL-1β expression in the spinal cord are suppressed, and the recovery of motor function is promoted
neuroprotective effects [6]: showed neuroprotective effects
increased vascular permeability [7]: alleviated increased vascular permeability
IL-1β production and neurological symptoms after brain injury (TBI model mice): inhibits IL-1β production in TBI model mice and suppresses the development of neurological symptoms after brain injury
NLRP3 inflammasome activation and memory impairment [8]: NLRP3 inflammasome activation is suppressed and the memory impairment is improved
depressive symptoms [9]: improves depressive symptoms
hypertension [10]: suppress hypertension
apoptosis of hippocampal neurons [11]: suppress apoptosis of hippocampal neurons
NLRP3 inflammasome activation, neuronal death in the striatum, symptom progression (R6/2 mice): inhibits NLRP3 inflammasome activation in the striatum of R6/2 mice, suppresses neuronal death in the striatum, and suppresses symptom progression
NLRP3 activation and neuronal death of dopamine neurons in the substantia nigra [12]: inhibits NLRP3 activation in the substantia nigra and suppresses neuronal death of dopamine neurons in the substantia nigra
NLRP3 activation in microglia and cognitive dysfunction (APP/PS1 mice): suppresses NLRP3 activation in microglia and improves cognitive dysfunction

CS(=O)(=O)CCC#N [OLT1177]
arthritis [13]: suppressed arthritis
